Data published in patent US12473289B2, “Heterocyclic compounds as delta-5 desaturase inhibitors and methods of use” (Amgen Inc., priority 2019, dated 2025).

Biological target: Delta-5-Desaturase (D5D) (Homo sapiens (Human), UniProt O60427)
Assay: In vitro measurement of Delta-5-Desaturase inhibitory activity using DGLA-CoA and Arachidonyl-CoA mass spectrometric assays
Format: biochemical
Details: membrane preparations of D5D-overexpressing HEK293 6E cells; averaged over at least two independent runs
Outline: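 DGLA-CoA and arachidonyl-CoA were read by RapidFire SPE triple-quad MS (negative mode, MRM) after a 1 h ambient-temperature reaction quenched with acetonitrile. Enzyme was D5D-overexpressing HEK293 6E membranes at 10 μg/mL final; substrate solution held 0.01 mM DGLA plus NADH, ATP and CoA. Inhibition was referenced to DMSO and no-enzyme wells; 4PL IC50.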

Chain of Delta-5-Desaturase (D5D) (O60427 whole entry, species assumed): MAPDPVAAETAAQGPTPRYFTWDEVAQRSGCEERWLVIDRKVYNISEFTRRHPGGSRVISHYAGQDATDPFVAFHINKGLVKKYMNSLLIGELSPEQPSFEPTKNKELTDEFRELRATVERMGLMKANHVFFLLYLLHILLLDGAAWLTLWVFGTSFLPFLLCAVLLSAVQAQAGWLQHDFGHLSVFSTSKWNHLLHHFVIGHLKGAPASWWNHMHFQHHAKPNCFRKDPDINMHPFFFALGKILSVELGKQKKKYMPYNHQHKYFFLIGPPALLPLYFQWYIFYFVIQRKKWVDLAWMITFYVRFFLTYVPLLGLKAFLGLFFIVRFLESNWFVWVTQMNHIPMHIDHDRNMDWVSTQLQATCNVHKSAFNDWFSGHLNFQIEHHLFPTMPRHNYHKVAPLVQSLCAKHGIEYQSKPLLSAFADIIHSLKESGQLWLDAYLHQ

Row | Structure (SMILES) | IC50 [nM]
1 | COc1cc2nc(C(F)(F)F)c(-c3cnn(CCC(F)(F)F)c3)c(=O)n2cc1F [Example 39-58, 7-fluoro-8-methoxy-2-(trifluoromethyl)-3-[1-(3,3,3-trifluoropropyl)-1H-pyrazol-4-yl]-4H-pyrido[1,2-a]pyrimidin-4-one] | 20.4
2 | COc1cnc2nc(C(F)(F)F)c(-c3cnn(CC(F)(F)C(F)(F)F)c3)c(=O)n2c1 [Example 40-1, 7-Methoxy-3-[1-(2,2,3,3,3-pentafluoropropyl)-1H-pyrazol-4-yl]-2-(trifluoromethyl)-4H-[1,3]diazino[1,2-a]pyrimidin-4-one] | 153
3 | Cc1cnc2nc(C(F)(F)F)c(-c3cnn(CC(F)(F)C(F)(F)F)c3)c(=O)n2c1 [Example 40-2, 7-methyl-3-[1-(2,2,3,3,3-pentafluoropropyl)-1H-pyrazol-4-yl]-2-(trifluoromethyl)-4H-[1,3]diazino[1,2-a]pyrimidin-4-one] | 51.8
4 | Cc1cc2nc(C(F)(F)F)c(-c3cnn(CC(F)(F)C(F)(F)F)c3)c(=O)n2cc1Cl [Example 41-1, 7-Chloro-8-methyl-3-[1-(2,2,3,3,3-pentafluoropropyl)-1H-pyrazol-4-yl]-2-(trifluoromethyl)-4H-pyrido[1,2-a]pyrimidin-4-one] | 1.2
5 | Cc1cc2nc(C(F)(F)F)c(-c3cnn(CCC(F)(F)F)c3)c(=O)n2cc1Cl [Example 41-2, 7-chloro-8-methyl-2-(trifluoromethyl)-3-[1-(3,3,3-trifluoropropyl)-1H-pyrazol-4-yl]-4H-pyrido[1,2-a]pyrimidin-4-one] | 51.1
6 | Cc1cc2nc(C(F)(F)F)c(-c3ccc(OCC(F)(F)F)cc3)c(=O)n2cc1Cl [Example 41-3, 7-chloro-8-methyl-3-[4-(2,2,2-trifluoroethoxy)phenyl]-2-(trifluoromethyl)-4H-pyrido[1,2-a]pyrimidin-4-one] | 241
7 | CCOc1nc2cc(OC)ccn2c(=O)c1-c1cnn(CC(F)(F)C(F)(F)F)c1 [Example 41-4, 2-ethoxy-8-methoxy-3-[1-(2,2,3,3,3-pentafluoropropyl)-1H-pyrazol-4-yl]-4H-pyrido[1,2-a]pyrimidin-4-one] | 22.3
8 | COc1nc2nc(C(F)(F)F)c(-c3cnn(CC(F)(F)C(F)(F)F)c3)c(=O)n2cc1F [Example 42, 7-Fluoro-8-methoxy-3-[1-(2,2,3,3,3-pentafluoropropyl)-1H-pyrazol-4-yl]-2-(trifluoromethyl)-4H-[1,3]diazino[1,2-a]pyrimidin-4-one] | 168
9 | O=c1c(-c2cnn(CC(F)(F)C(F)(F)F)c2)c(C(F)(F)F)nc2cc(O)c(F)cn12 [Example 43, 7-Fluoro-8-hydroxy-3-[1-(2,2,3,3,3-pentafluoropropyl)-1H-pyrazol-4-yl]-2-(trifluoromethyl)-4H-pyrido[1,2-a]pyrimidin-4-one] | 742
10 | O=c1c(-c2cnn(CC(F)(F)C(F)(F)F)c2)c(C(F)(F)F)nc2cc(O)cnn12 [Example 44, 8-Hydroxy-3-[1-(2,2,3,3,3-pentafluoropropyl)-1H-pyrazol-4-yl]-2-(trifluoromethyl)-4H-pyrimido[1,2-b]pyridazin-4-one] | 1810
11 | O=c1c(-c2cnn(CC(F)(F)C(F)(F)F)c2)c(C(F)(F)F)nc2cc(OCCl)ccn12 [Example 46, 8-(Chloromethoxy)-3-[1-(2,2,3,3,3-pentafluoropropyl)-1H-pyrazol-4-yl]-2-(trifluoromethyl)-4H-pyrido[1,2-a]pyrimidin-4-one] | 16.6
12 | O=c1c(-c2cnn(CC(F)(F)C(F)(F)F)c2)c(C(F)(F)F)nc2cc(OCF)cnn12 [Example 47, 8-(Fluoromethoxy)-3-[1-(2,2,3,3,3-pentafluoropropyl)-1H-pyrazol-4-yl]-2-(trifluoromethyl)-4H-pyrimido[1,2-b]pyridazin-4-one] | 33.5
13 | O=c1c(-c2cnn(CC(F)(F)C(F)(F)F)c2)c(C(F)(F)F)nc2cc(OCCl)cnn12 [Example 48, 8-(Chloromethoxy)-3-[1-(2,2,3,3,3-pentafluoropropyl)-1H-pyrazol-4-yl]-2-(trifluoromethyl)-4H-pyrimido[1,2-b]pyridazin-4-one] | 119
14 | COc1ccn2c(=O)c(-c3cnn(C4CC4)c3)c(C(F)(F)F)nc2c1 [Example 49, 3-(1-Cyclopropyl-1H-pyrazol-4-yl)-8-methoxy-2-(trifluoromethyl)-4H-pyrido[1,2-a]pyrimidin-4-one] | 104
15 | COc1ccn2c(=O)c(-c3nc(OCC(F)(F)F)cs3)c(C(F)(F)F)nc2c1 [Example 51, 8-Methoxy-3-[4-(2,2,2-trifluoroethoxy)-1,3-thiazol-2-yl]-2-(trifluoromethyl)-4H-pyrido[1,2-a]pyrimidin-4-one] | 2980
16 | COc1ccn2c(=O)c(-c3ncc(CCC(F)(F)F)s3)c(C(F)(F)F)nc2c1 [Example 58, 8-Methoxy-2-(trifluoromethyl)-3-[5-(3,3,3-trifluoropropyl)-1,3-thiazol-2-yl]-4H-pyrido[1,2-a]pyrimidin-4-one] | 594

Next, values leading:

Row | IC50 [nM] | Structure (SMILES)
17 | 5380 | Cc1ccn2c(=O)c(-c3noc(CCC(F)(F)F)n3)c(C(F)(F)F)nc2c1 [Example 50, 8-Methyl-2-(trifluoromethyl)-3-[5-(3,3,3-trifluoropropyl)-1,2,4-oxadiazol-3-yl]-4H-pyrido[1,2-a]pyrimidin-4-one]
18 | 158 | COc1ccn2c(=O)c(-c3nnn(CC(F)(F)C(F)(F)F)c3I)c(C(F)(F)F)nc2c1 [Example 52, 3-[5-Iodo-1-(2,2,3,3,3-pentafluoropropyl)-1H-1,2,3-triazol-4-yl]-8-methoxy-2-(trifluoromethyl)-4H-pyrido[1,2-a]pyrimidin-4-one]
19 | 44.7 | COc1ccn2c(=O)c(-c3cn(CC(F)(F)C(F)(F)F)nn3)c(C(F)(F)F)nc2c1 [Example 53, 8-Methoxy-3-[1-(2,2,3,3,3-pentafluoropropyl)-1H-1,2,3-triazol-4-yl]-2-(trifluoromethyl)-4H-pyrido[1,2-a]pyrimidin-4-one]
20 | > 67000 | COc1ccn2c(=O)c(-c3ncn(CC(F)(F)C(F)(F)F)n3)c(C(F)(F)F)nc2c1 [Example 54, 8-Methoxy-3-[1-(2,2,3,3,3-pentafluoropropyl)-1H-1,2,4-triazol-3-yl]-2-(trifluoromethyl)-4H-pyrido[1,2-a]pyrimidin-4-one]
21 | 8.7 | COc1ccn2c(=O)c(-c3cc(CCC(F)(F)F)no3)c(C(F)(F)F)nc2c1 [Example 55, 8-Methoxy-2-(trifluoromethyl)-3-[3-(3,3,3-trifluoropropyl)-1,2-oxazol-5-yl]-4H-pyrido[1,2-a]pyrimidin-4-one]
22 | 21.5 | COc1ccn2c(=O)c(-c3cnc(OCC(F)(F)F)s3)c(C(F)(F)F)nc2c1 [Example 56, 8-Methoxy-3-[2-(2,2,2-trifluoroethoxy)-1,3-thiazol-5-yl]-2-(trifluoromethyl)-4H-pyrido[1,2-a]pyrimidin-4-one]
23 | 1150 | COc1ccn2c(=O)c(-c3ncc(OCC(F)(F)F)s3)c(C(F)(F)F)nc2c1 [Example 57, 8-methoxy-3-[5-(2,2,2-trifluoroethoxy)-1,3-thiazol-2-yl]-2-(trifluoromethyl)-4H-pyrido[1,2-a]pyrimidin-4-one]
24 | 365 | COc1ccn2c(=O)c(-n3cnc(CCC(F)(F)F)c3)c(C(F)(F)F)nc2c1 [Example 59, 8-Methoxy-2-(trifluoromethyl)-3-[4-(3,3,3-trifluoropropyl)-1H-imidazol-1-yl]-4H-pyrido[1,2-a]pyrimidin-4-one]
25 | 74.9 | COc1ccn2c(=O)c(-c3cc(CC(F)(F)C(F)(F)F)no3)c(C(F)(F)F)nc2c1 [Example 60, 8-Methoxy-3-[3-(2,2,3,3,3-pentafluoropropyl)-1,2-oxazol-5-yl]-2-(trifluoromethyl)-4H-pyrido[1,2-a]pyrimidin-4-one]
26 | 46.9 | CCCc1cc(-c2c(C(F)(F)F)nc3cc(OC)ccn3c2=O)no1 [Example 61, 8-Methoxy-3-(5-propyl-1,2-oxazol-3-yl)-2-(trifluoromethyl)-4H-pyrido[1,2-a]pyrimidin-4-one]
27 | > 67000 | COc1ccn2c(=O)c(-c3cccc(OCC(F)(F)F)c3)c(C(F)(F)F)nc2c1 [Example 62, 8-Methoxy-3-[3-(2,2,2-trifluoroethoxy)phenyl]-2-(trifluoromethyl)-4H-pyrido[1,2-a]pyrimidin-4-one]
28 | 43.6 | Cn1c(=O)c(F)cn2c(=O)c(-c3cnn(CC(F)(F)C(F)(F)F)c3)c(C(F)(F)F)nc12 [Example 63, 3-Fluoro-1-methyl-7-[1-(2,2,3,3,3-pentafluoropropyl)-1H-pyrazol-4-yl]-8-(trifluoromethyl)-1H,2H,6H-[1,3]diazino[1,2-a]pyrimidine-2,6-dione]
29 | 540 | CN1CCn2c(nc(C(F)(F)F)c(-c3cnn(CC(F)(F)C(F)(F)F)c3)c2=O)C1 [Example 64, 8-Methyl-3-[1-(2,2,3,3,3-pentafluoropropyl)-1H-pyrazol-4-yl]-2-(trifluoromethyl)-4H,6H,7H,8H,9H-pyrimido[1,2-a]pyrazin-4-one]
30 | 90.5 | O=c1ccn2c(=O)c(-c3cnn(CC(F)(F)C(F)(F)F)c3)c(C(F)(F)F)nc2n1CCl [Example 65, 1-(Chloromethyl)-7-[1-(2,2,3,3,3-pentafluoropropyl)-1H-pyrazol-4-yl]-8-(trifluoromethyl)-1H,2H,6H-pyrimido[1,2-a][1,3]diazine-2,6-dione]
31 | 111 | COc1nc2nc(C(F)(F)F)c(-c3cnn(CC(F)(F)C(F)(F)F)c3)c(=O)n2cc1Cl [Example 66, 7-Chloro-8-methoxy-3-[1-(2,2,3,3,3-pentafluoropropyl)-1H-pyrazol-4-yl]-2-(trifluoromethyl)-4H-[1,3]diazino[1,2-a]pyrimidin-4-one]
32 | 32.5 | Cn1c(=O)ccn2c(=O)c(-c3cnn(CC(F)(F)C(F)(F)F)c3)c(C(F)(F)F)nc12 [Example 67, 1-Methyl-7-[1-(2,2,3,3,3-pentafluoropropyl)-1H-pyrazol-4-yl]-8-(trifluoromethyl)-1H,2H,6H-[1,3]diazino[1,2-a]pyrimidine-2,6-dione]
